Seven compounds from patent publication EP2123249A1, “OIL SOLUTION, AND LUBRICANT, MOISTURE-RETAINING AGENT AND PREPARATION FOR EXTERNAL APPLICATION CONTAINING THE SAME” (priority 2007, dated 2008) can be followed below.

Data set [1] is described as follows: Viscosity, Brookfield viscometer DV-II+ (Spindle No. 2, 12 rpm, 25°C). The format is physicochemical. The procedure:
The viscosity of the oil agent of the present invention is, when used in external preparations such as moisturizers and cosmetic materials, preferably 5-200 (mPa·s, 25°C), and more preferably 8-100 (mPa·s, 25°C) . When the viscosity is within the above range, good feeling of use without stickiness can be obtained upon application to skin, etc. In addition, when the oil agent is used in lubricating agents, the viscosity is preferably 50-200 (mPa·s, 25°C) , and more preferably 60-180 (mPa·s, 25°C). When the viscosity is within this range, appropriate lubricating property and workability can be obtained. In this specification, "viscosity" refers to a value of viscosity measured using a Brookfield viscometer DV-II+ (Spindle No. 2, 12 rpm, 25°C).
In these examples, viscosity was measured using a Brookfield viscometer DV-II+ (Spindle No. 2, 12 rpm, 25°C).

A short description of data set [2]: Feeling of use, graded by viscosity. The format is physicochemical. Conditions: class by viscosity at 25°C.
Data set [3] is described as follows: Oil solubility evaluation in KAK99 (isononyl isononanoate).
Data set [4] in a line: Water solubility evaluation. The format is physicochemical. Conditions: in water.

Counter-ions that a name gives are not always drawn.

With `CCOCCOCCOC(=O)C(O)C(O)C(=O)OCCOCCOCC` (stereo not drawn) [Example 4, dicarbitol tartrate], the Viscosity in data set [1] amounted to 207 mPa·s. For the same compound, the Feeling of use entry in data set [2] was “slightly heavy”.
Turning to `CCOCCOCCOCCOC(=O)CCC(=O)OCCOCCOCCOCC` [Example 5, di(triethylene glycol monoethyl ether) succinate], the Viscosity in data set [1] came to 32.5 mPa·s. Moreover, in data set [2], the Feeling of use entry is on record as “slightly light”. Also, the Oil solubility result in data set [3] is “△ (Dissolved in KAK99 up to 5 % by mass)”.
In the case of `CCOCCOCCOC(=O)CC(C)CC(C)(C)C` (stereo not drawn) [Comparative example 1, carbitol isononanoate, reference compound], in data set [1], the Viscosity was 5 mPa·s. Further, the Feeling of use entry in data set [2] is reported as “light”.
With `CCOCCOCCOC(=O)CCC(=O)OCCOCCOCC` [Example 1, dicarbitol succinate], the Viscosity in data set [1] is recorded as 12.5 mPa·s. Moreover, the Feeling of use result in data set [2] is recorded as “light”.
For the compound `CCOCCOC(=O)CCC(=O)OCCOCC` [Example 6, di(monoethylene glycol monoethyl ether) succinate], the Viscosity in data set [1] stood at 10.0 mPa·s. Besides, the Water solubility entry in data set [4] was “△ (Dissolved in water up to 5 % by mass)”. Moreover, in data set [2], the Feeling of use result was “light”.
The compound `CCOCCOCCOC(=O)CCCCC(=O)OCCOCCOCC` [Example 3, dicarbitol adipate] yielded a Viscosity in data set [1] of 20 mPa·s. In data set [2], the Feeling of use result is on record as “light”.
In the case of `CCOCCOCCOC(=O)CC(O)C(=O)OCCOCCOCC` (stereo not drawn) [Example 2, dicarbitol malate], the Viscosity in data set [1] was 45 mPa·s. For the same compound, the Water solubility entry in data set [4] is given as “○ (Dissolved in water up to 10 % by mass)”. The Feeling of use result in data set [2] is recorded as “slightly light”. Moreover, in data set [3], the Oil solubility result was “△ (Dissolved in KAK99 up to 5 % by mass)”.
